For this test, the system named is DREADDs-expressing PVN OXT neurons. Nature of the test: Whole-cell patch clamp of DREADDs-expressing PVN OXT neurons, CNO application. The test is classed as cell-based, rat. From the text: CVNs in NA and DMNX were identified by the presence of fluorescent tracer rhodamine and imaged using differential interference contrast optics and infrared illumination. Whole cell voltage clamp recordings from CVNs were done using Axopatch 200B and pClamp 8 software (Axon Instruments, Union city, USA), at a holding voltage of −80 mV at room temperature. The patch pipettes (2.5-5 MΩ) were filled with a solution consisting (in mM) of KCl (150), MgCl2 (4), EGTA (10), Na-ATP (2) and HEPES (10) or K-gluconic acid (150), HEPES (10), EGTA (10), MgCl2 (1) and CaCl2 (1) at a pH of 7.3 for recording inhibitory or excitatory events respectively. For PVN studies, forebrain slices were used for electrophysiology recordings.
A rat minimal oxytocin (OXT) promoter element from ˜530 bp to +33 relative to the origin of transcription of the OXT gene (UCSC genome browser on rat November 2004 assembly; chr3:118,193,690 to 118,194,252) was synthesized de novo and flanked by multiple cloning sites (Genscript, Piscataway, N.J.) (McCann et al., 2002; Petersson et al., 1996). […] Expression of these Cre-dependent vectors will only be initiated in neurons selectively expressing Cre as they contain silencing double-foxed inverse open reading frames (Sawchenko and Swanson, 1982). […]
For orientation: The patch-clamp technique gives a direct electrical read-out from membranes.

The structures appear in SMILES notation.

Results on one compound are retold here after patent publication US10842845B2, “Oxytocin improves treatment of obstructive sleep apnea” (THE GEORGE WASHINGTON UNIVERSITY, priority 2014, dated 2020).

Turning to `C[N+]1([O-])CCN(C2=Nc3cc(Cl)ccc3Nc3ccccc32)CC1` [CNO, clozapine-n-oxide], the “firing of PVN OXT neurons expressing DREADDs with CNO application (in words)” value (before CNO vs post CNO, 7 neurons) is “significantly increases”. Also, the “action potential firing frequency of DREADDs-expressing PVN neurons after CNO application” value (within 5 min of CNO application, from 0.19±0.05 Hz before CNO, n=7) turned out to be 0.75±0.14 Hz.
